{"source": "patent US20030013099A1", "about": "“Genes regulated by DNA methylation in colon tumors” (priority 2001, published 2003)", "system": "HMEC cells", "assay": "microarray differential expression, HMEC cells treated with Aza", "type": "cell-based, human", "details": "vs untreated, log base 2, negative = upregulation", "method": "HT29 cells were derived from a Grade II adenocarcinoma of the colon obtained from a person. HCT116 cells are a subpopulation of malignant cells isolated from a primary cell culture of a single human colonic carcinoma (Brattain et al. (1981) Cancer Res 41:1751-6). HMEC cells are a primary human epithelial cell line derived from the breast tissue of a normal donor. […] Treated cells were exposed to 500 nM 5-aza-2-deoxycytidine (Aza; Sigma-Aldrich) 24 hours after passage in complete culture medium. Control cultures were treated in parallel with phosphate buffered saline vehicle. After twenty-four hours, culture medium was replaced with drug-free medium. Control and Aza-treated cells were subcultured at equal densities at 1 and 5 days after the initial treatment, and proliferation was measured at the subsequent time point using a Coulter counter (Beckman Coulter, Fullerton Calif.). […]\nCells were harvested and lysed in 1 ml of TRIZOL reagent (5×10^6 cells/ml; Invitrogen). The lysates were vortexed thoroughly and incubated at room temperature for 2-3 minutes and extracted with 0.5 ml chloroform. The extract was mixed, incubated at room temperature for 5 minutes, and centrifuged at 16,000× g for 15 minutes at 4° C. The aqueous layer was collected, and an equal volume of isopropanol was added. Samples were mixed, incubated at room temperature for 10 minutes, and centrifuged at 16,000× g for 20 minutes at 4° C. The supernatant was removed, and the RNA pellet was washed with 1 ml of 70% ethanol, centrifuged at 16,000× g at 4° C., and resuspended in RNAse-free water. The concentration of the RNA was determined by measuring the optical density at 260 nm.\nPoly(A) RNA was prepared using an OLIGOTEX mRNA kit (Qiagen) with the following modifications: OLIGOTEX beads were washed in tubes instead of on spin columns, resuspended in elution buffer, and then loaded onto spin columns to recover mRNA. To obtain maximum yield, the mRNA was eluted twice.\nEach poly(A) RNA sample was reverse transcribed using MMLV reverse-transcriptase, 0.05 pg/μl oligo-d(T) primer (21mer), 1× first strand buffer, 0.03 units/ul RNAse inhibitor, 500 uM dAT?, 500 uM dGTP, 500 uM dTTP, 40 uM dCTP, and 40 uM either dCTP-Cy3 or dCTP-Cy5 (APB). The reverse transcription reaction was performed in a […] volume containing 200 ng poly(A) RNA using the GEMBRIGHT kit (Incyte Genomics). Specific control poly(A) RNAs (YCFRO6, YCFR45, YCFR67, YCFR85, YCFR43, YCFR22, YCFR23, YCFR25, YCFR44, YCFR26) were synthesized by in vitro transcription from non-coding yeast genomic DNA (W. Lei, unpublished). As quantitative controls, control mRNAs (YCFRO6, YCFR45, YCFR67, and YCFR85) at 0.002 ng, 0.02 ng, 0.2 ng, and 2 ng were diluted into reverse transcription reaction at ratios of 1:100,000, 1:10,000, 1:1000, 1:100 (w/w) to sample mRNA, respectively. To sample differential expression patterns, control mRNAs (YCFR43, YCFR22, YCFR23, YCFR25, YCFR44, YCFR26) were diluted into reverse transcription reaction at ratios of 1:3, 3:1, 1:10, 10:1, 1:25, 25:1 (w/w) to sample mRNA. Reactions were incubated at 37° C. for 2 hours, treated with […] of 0.5M sodium hydroxide, and incubated for 20 minutes at 85° C. to the stop the reaction and degrade the RNA.\ncDNAs were purified using two successive CHROMA SPIN 30 gel filtration spin columns (Clontech). Cy3- and Cy5-labeled reaction samples were combined as described below and ethanol precipitated using […] of 100% ethanol. The cDNAs were then dried to completion using a SpeedVAC system (Savant Instruments, Holbrook N.Y.) and resuspended in 14 μl 5× SSC, 0.2% SDS.\nHybridization reactions contained 9 μl of sample mixture containing 0.2 μg each of Cy3 and CyS labeled cDNA synthesis products in 5× SSC, 0.2% SDS hybridization buffer. The mixture was heated to 65° C. for 5 minutes and was aliquoted onto the microarray surface and covered with an 1.8 cm^2 coverslip. […]", "key": {"[1]": {"details": "SEQ ID NO:33 cDNA clone YU62C03"}, "[2]": {"details": "SEQ ID NO:37, 38 MAGE-4b antigen"}, "[3]": {"details": "SEQ ID NO:49 phospholipid scramblase 1"}, "[4]": {"details": "SEQ ID NO:50 retinoid inducible gene 1"}, "[5]": {"details": "SEQ ID NO:51 interferon induced"}, "[6]": {"details": "SEQ ID NO:56 hepatitis C-associated microtubular aggregate"}, "[7]": {"details": "SEQ ID NO:58 Similar to keratin 7"}}}
{"smiles": "Nc1ncn([C@H]2C[C@H](O)[C@@H](CO)O2)c(=O)n1", "note": "[Aza, 5-aza-2-deoxycytidine]", "values": [{"measurement": "differential expression, Clone ID 4764233, HMEC t/Aza (9d)", "setting": "SEQ ID NO:30 GAGE-8", "result": 0.00}, {"measurement": "differential expression, Clone ID 2511379, HMEC t/Aza (4d)", "setting": "SEQ ID NO:31 GAGE-7B", "result": 0.32}, {"measurement": "differential expression, Clone ID 2511379, HMEC t/Aza (9d)", "setting": "SEQ ID NO:31 GAGE-7B", "result": 0.32}, {"measurement": "differential expression, Clone ID 2471817, HMEC t/Aza (4d)", "setting": "[1]", "result": 0.07}, {"measurement": "differential expression, Clone ID 2471817, HMEC t/Aza (9d)", "setting": "[1]", "result": 0.00}, {"measurement": "differential expression, Clone ID 3333736, HMEC t/Aza (4d)", "setting": "SEQ ID NO:34 MAGE-11 antigen", "result": 0.06}, {"measurement": "differential expression, Clone ID 3333736, HMEC t/Aza (9d)", "setting": "SEQ ID NO:34 MAGE-11 antigen", "result": 0.00}, {"measurement": "differential expression, Clone ID 1304365, HMEC t/Aza (4d)", "setting": "SEQ ID NO:35 GAGE-8", "result": 0.00}, {"measurement": "differential expression, Clone ID 1304365, HMEC t/Aza (9d)", "setting": "SEQ ID NO:35 GAGE-8", "result": 0.00}, {"measurement": "differential expression, Clone ID 2657056, HMEC t/Aza (4d)", "setting": "[2]", "result": 0.13}, {"measurement": "differential expression, Clone ID 2657056, HMEC t/Aza (9d)", "setting": "[2]", "result": 0.00}, {"measurement": "differential expression, Clone ID 2507719, HMEC t/Aza (4d)", "setting": "SEQ ID NO:39 MAGE-9 antigen", "result": "−0.48"}, {"measurement": "differential expression, Clone ID 2507719, HMEC t/Aza (9d)", "setting": "SEQ ID NO:39 MAGE-9 antigen", "result": "−0.24"}, {"measurement": "differential expression, Clone ID 4688, HMEC t/Aza (4d)", "setting": "SEQ ID NO:41 MAGE-1", "result": "−0.13"}, {"measurement": "differential expression, Clone ID 4688, HMEC t/Aza (9d)", "setting": "SEQ ID NO:41 MAGE-1", "result": "−0.13"}, {"measurement": "differential expression, Clone ID 2068708, HMEC t/Aza (4d)", "setting": "SEQ ID NO:42 HM74", "result": "−0.50"}, {"measurement": "differential expression, Clone ID 2068708, HMEC t/Aza (9d)", "setting": "SEQ ID NO:42 HM74", "result": "−0.24"}, {"measurement": "differential expression, Clone ID 23770, HMEC t/Aza (4d)", "setting": "SEQ ID NO:43 1-8D", "result": "−0.48"}, {"measurement": "differential expression, Clone ID 23770, HMEC t/Aza (9d)", "setting": "SEQ ID NO:43 1-8D", "result": "−0.63"}, {"measurement": "differential expression, Clone ID 1616783, HMEC t/Aza (4d)", "setting": "SEQ ID NO:45 Incyte Unique", "result": "−0.53"}, {"measurement": "differential expression, Clone ID 1616783, HMEC t/Aza (9d)", "setting": "SEQ ID NO:45 Incyte Unique", "result": "−0.20"}, {"measurement": "differential expression, Clone ID 820942, HMEC t/Aza (4d)", "setting": "SEQ ID NO:46 cDNA FLJ20120", "result": "−0.48"}, {"measurement": "differential expression, Clone ID 820942, HMEC t/Aza (9d)", "setting": "SEQ ID NO:46 cDNA FLJ20120", "result": "−0.20"}, {"measurement": "differential expression, Clone ID 891322, HMEC t/Aza (4d)", "setting": "SEQ ID NO:47 Incyte Unique", "result": 0.00}, {"measurement": "differential expression, Clone ID 891322, HMEC t/Aza (9d)", "setting": "SEQ ID NO:47 Incyte Unique", "result": 0.00}, {"measurement": "differential expression, Clone ID 2755836, HMEC t/Aza (4d)", "setting": "SEQ ID NO:48 U5 A RNA", "result": "−0.26"}, {"measurement": "differential expression, Clone ID 2755836, HMEC t/Aza (9d)", "setting": "SEQ ID NO:48 U5 A RNA", "result": "−0.31"}, {"measurement": "differential expression, Clone ID 1227521, HMEC t/Aza (4d)", "setting": "[3]", "result": "−0.19"}, {"measurement": "differential expression, Clone ID 1227521, HMEC t/Aza (9d)", "setting": "[3]", "result": "−0.63"}, {"measurement": "differential expression, Clone ID 2200842, HMEC t/Aza (4d)", "setting": "[4]", "result": 0.00}, {"measurement": "differential expression, Clone ID 2200842, HMEC t/Aza (9d)", "setting": "[4]", "result": 0.00}, {"measurement": "differential expression, Clone ID 2238363, HMEC t/Aza (4d)", "setting": "[5]", "result": "−0.50"}, {"measurement": "differential expression, Clone ID 2238363, HMEC t/Aza (9d)", "setting": "[5]", "result": "−0.29"}, {"measurement": "differential expression, Clone ID 1495382, HMEC t/Aza (4d)", "setting": "SEQ ID NO:53 TRAIL", "result": "−0.48"}, {"measurement": "differential expression, Clone ID 1495382, HMEC t/Aza (9d)", "setting": "SEQ ID NO:53 TRAIL", "result": "−0.19"}, {"measurement": "differential expression, Clone ID 1998269, HMEC t/Aza (4d)", "setting": "SEQ ID NO:55 rhoB", "result": "−0.29"}, {"measurement": "differential expression, Clone ID 1998269, HMEC t/Aza (9d)", "setting": "SEQ ID NO:55 rhoB", "result": "−0.68"}, {"measurement": "differential expression, Clone ID 1919287, HMEC t/Aza (4d)", "setting": "[6]", "result": 0.00}, {"measurement": "differential expression, Clone ID 1919287, HMEC t/Aza (9d)", "setting": "[6]", "result": 0.00}, {"measurement": "differential expression, Clone ID 2637446, HMEC t/Aza (4d)", "setting": "SEQ ID NO:57 HE4 protein", "result": 0.00}, {"measurement": "differential expression, Clone ID 2637446, HMEC t/Aza (9d)", "setting": "SEQ ID NO:57 HE4 protein", "result": 0.00}, {"measurement": "differential expression, Clone ID 1962141, HMEC t/Aza (4d)", "setting": "[7]", "result": 0.00}, {"measurement": "differential expression, Clone ID 1962141, HMEC t/Aza (9d)", "setting": "[7]", "result": "−0.07"}, {"measurement": "differential expression, Clone ID 4933404, HMEC t/Aza (4d)", "setting": "SEQ ID NO:60 Incyte Unique", "result": 0.96}, {"measurement": "differential expression, Clone ID 4933404, HMEC t/Aza (9d)", "setting": "SEQ ID NO:60 Incyte Unique", "result": 0.48}, {"measurement": "differential expression, Clone ID 2150288, HMEC t/Aza (4d)", "setting": "SEQ ID NO:61 Keratin 8", "result": "−0.67"}, {"measurement": "differential expression, Clone ID 2150288, HMEC t/Aza (9d)", "setting": "SEQ ID NO:61 Keratin 8", "result": "−0.42"}, {"measurement": "differential expression, Clone ID 2697455, HMEC t/Aza (4d)", "setting": "SEQ ID NO:61 Keratin 8", "result": "−0.63"}, {"measurement": "differential expression, Clone ID 2697455, HMEC t/Aza (9d)", "setting": "SEQ ID NO:61 Keratin 8", "result": "−0.37"}]}
